Tested on: human cervical carcinoma (CaSki) tumor
Assay: Anti-tumor effect of prodrug and radiation therapy, CaSki tumor-bearing mice (Example 2)
Details: 5 Gy irradiation in three fractions plus i.v. drug (prodrug 30 mg/kg, free mitomycin C 3.3 mg/kg), 21 days, FIG. 1
Protocol: Tumor volume was measured for 21 days and the change in tumor volume (ratio of tumor volume at day zero to tumor volume at indicated day post injection) as a function of days post injection of the chemotherapeutic agent was measured.
Cells from a human cervical carcinoma cell line, CaSki, were injected subcutaneously (1 million cells in 200 μL 1:1 RPMI and matrigel) into the left flank of 8 week old female Nu mice. Two weeks after inoculation, mice were treated three times with 5 Gy irradiation. […] Tumor volume was measured for 21 days in all test mice.

## CO[C@@]12[C@H](COC(N)=O)C3=C(C(=O)C(C)=C(N)C3=O)N1C[C@@H]1N[C@@H]12 [free mitomycin C, mitomycin C]
  tumor growth (change in tumor volume): little or no tumor growth

Reference: patent publication US9937261B2 (LIPOMEDIX PHARMACEUTICALS LTD., priority 2014, dated 2018)
